Measured values reported in PubChem BioAssay (NCI).
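96-well plates; 48 h exposure; 5 concentrations. Endpoints by linear interpolation between flanking doses. Not reached: highest tested concentration assigned. GI50 marks 50% less growth. TGI denotes the concentration required for complete inhibition of growth.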

Tested on: RXF-631 renal
Assay: NCI tumour cell line growth inhibition, 48 h

| Structure (SMILES) | TGI | GI50 |
| --- | --- | --- |
| O=C1NC2(NC(=O)C1=O)Nc1ccccc1S2 | 47.9 µM |  |
| Nc1nccc2c1ncn2C1C=C(CO)C(O)C1O (stereo not drawn) | > 1000 µM | 902 µM |
